From patent US11930822B2, “Methylobacterium compositions for fungal disease control” (priority 2017, dated 2024)

Columns and labels:
[1] = tested on: P. torulosum, P. oopapillum, P. sylvaticum and P. lutarium; assay: Greenhouse Pythium assay in soybean, consortium of 4 Pythium species; format: in vivo, Pythium spp.
Protocol: (§1) A greenhouse experiment was conducted is to evaluate the ability of Methylobacterium strains to suppress Pythium disease in soybean. Methylobacterium treatments were compared to treatments with metalaxyl at various rates to determine if Methylobacterium strains can provide protection beyond and in addition to the level of protection provided by commonly used agronomic seed treatments. The experiment was designed to allow for growth of plants for in the presence of moderate levels of Pythium. spp. to determine impacts on emergence, % dead seed and root rot incidence and severity.
(§2) Pythium inoculants were prepared by mixing 453 g of parboiled rice and 323 mL of distilled water, placing the rice in a vented autoclavable plastic bag, and autoclaving 2×40 minutes with each cycle separated by 24 hours. Rice was inoculated with 3-4-day-old Pythium cultures and incubated for 7-10 days at 23 °C in the dark. The inoculum was then dried for 2 days.
(§3) A 20 ml layer of rice inoculum is placed on soil in cups and additional soil layered on top of the inoculum to position the inoculum approximately 2-3 cm below the seeds to be planted. Water is added to the soil and 10 seeds are planted in each cup. Domes are placed over the cups and the cups are placed in growth chambers with temperature set at 230C, and on a diurnal cycle of 16 h light and 8 h dark. The seeds are incubated for 14 days at 23 °C. For experiments to assess activity of Methylobacterium strains against a consortium of 4 Pythium species, the seeds are incubated for 14 days at 130C and for an additional 7 days at 23 °C.
(§4) Plants are rated when the first trifoliate is fully emerged and open to determine total plant weight, number of seedlings and number of dead seeds. Disease incidence is evaluated as percent plants with rotted roots and disease severity as percent rotted root tissue for each seedling.
Results from inoculation with a consortium of 4 Pythium species at alternating temperature of 130C and 230C are shown in Tables 35-36 below. The four species, which are all important pathogens of corn and soybean, are P. torulosum, P. oopapillum, P. sylvaticum and P. lutarium.

Pythium lutarium = assay: Greenhouse Pythium assay in soybean, Pythium lutarium; format: in vivo
Protocol: as §1, §2, §3, §4

Pythium sylvaticum = assay: Greenhouse Pythium assay in soybean, Pythium sylvaticum; format: in vivo
Protocol: as §1, §2, §3, §4

COCC(=O)N(c1c(C)cccc1C)C(C)C(=O)OC (stereo not drawn) [metalaxyl]
Mean Dead Seed (%) ([1]; Table 35, 0.35 Fl. oz/cwt): 6%
Mean Emergence (%) ([1]; Table 35, 0.35 Fl. oz/cwt): 94%
Mean Dead Seed (%) ([1]; Table 35, 0.75 Fl. oz/cwt): 2%
Mean Emergence (%) ([1]; Table 35, 0.75 Fl. oz/cwt): 100%
Mean Dead Seed (%) ([1]; Table 35, 1.25 Fl. oz/cwt): 2%
Mean Emergence (%) ([1]; Table 35, 1.25 Fl. oz/cwt): 94%
Root Rot INC (%) ([1]; Table 36, 0.35 Fl. oz/cwt): 94%
Root Rot Severity (%) ([1]; Table 36, 0.35 Fl. oz/cwt): 13%
Root Rot INC (%) ([1]; Table 36, 0.75 Fl. oz/cwt): 100%
Root Rot Severity (%) ([1]; Table 36, 0.75 Fl. oz/cwt): 12%
Root Rot INC (%) ([1]; Table 36, 1.25 Fl. oz/cwt): 94%
Root Rot Severity (%) ([1]; Table 36, 1.25 Fl. oz/cwt): 9%
% Dead Seed (Pythium lutarium; Table 33, 0.75 Fl. oz/cwt): 3%
Mean Emergence (%) (Pythium lutarium; Table 33, 0.75 Fl. oz/cwt): 97%
% Dead Seed (Pythium lutarium; Table 33, 1.25 Fl. oz/cwt): 67%
Mean Emergence (%) (Pythium lutarium; Table 33, 1.25 Fl. oz/cwt): 93%
Mean Root Rot Incidence (%) (Pythium lutarium; Table 34, 0.35 Fl. oz/cwt): 95%
Mean Root Rot Severity (%) (Pythium lutarium; Table 34, 0.35 Fl. oz/cwt): 13%
Mean Root Rot Incidence (%) (Pythium lutarium; Table 34, 0.75 Fl. oz/cwt): 95%
Mean Root Rot Severity (%) (Pythium lutarium; Table 34, 0.75 Fl. oz/cwt): 10%
Mean Root Rot Incidence (%) (Pythium lutarium; Table 34, 1.25 Fl. oz/cwt): 93%
Mean Root Rot Severity (%) (Pythium lutarium; Table 34, 1.25 Fl. oz/cwt): 11%
% Dead Seed (Pythium sylvaticum; Table 31, 0.35 Fl. oz/cwt): 18%
Emergence (Pythium sylvaticum; Table 31, 0.35 Fl. oz/cwt): 82
Mean Emergence (%) (Pythium sylvaticum; Table 32, 0.35 Fl. oz/cwt): 78%
Mean Root Rot Severity (%) (Pythium sylvaticum; Table 32, 0.35 Fl. oz/cwt): 17%
Mean Emergence (%) (Pythium sylvaticum; Table 32, 0.75 Fl. oz/cwt): 92%
Mean Root Rot Severity (%) (Pythium sylvaticum; Table 32, 0.75 Fl. oz/cwt): 18%
Mean Emergence (%) (Pythium sylvaticum; Table 32, 1.25 Fl. oz/cwt): 78%
Mean Root Rot Severity (%) (Pythium sylvaticum; Table 32, 1.25 Fl. oz/cwt): 21%
